Assay results published in ChEMBL document CHEMBL1149943, “2-aminoalchohol immunosuppressants: Structure-activity relationships” (Bioorg Med Chem Lett, 1996).

Species on record: Mus musculus
Test: Compound was tested for its effect on mouse allogenic mixed lymphocyte reaction(MLR).
Assay type: functional, organism-based

Structure (SMILES)	IC50 [nM]
CCCCCCCCc1ccc(CCC(N)CO)cc1 (stereo not given)	211
CCCCCCCCCCCCCCCCCC[C@H](N)CO	1390
CCCCCCCCc1ccc(CC[C@H](N)CO)cc1	427
CCCCCCCCCCCCCCCCCC[C@@H](N)CO	533
CCCCCCCCCCCCCCCCCCC(N)CO (racemic)	867

The next molecules have a lower IC50 than those just listed; values first:

IC50 [nM]	Structure (SMILES)
137	CCCCCCCCCCCCCC[C@H](N)CO
108	CCCCCCCCc1ccc(CC[C@@H](N)CO)cc1
98.3	CCCCCCCCCCCCCCC(N)CO (racemic)
68.8	CCCCCCCCCCCCCC[C@@H](N)CO
67.4	CCCCCCCCc1ccc(CCC(N)(CO)CO)cc1 [FINGOLIMOD]
